Read-outs that look alike come from different tables or passages of the source.
How the values were obtained:
[1] = cited from earlier work
pregnant rabbits = settings: CAB orally 0, 30, 500, or 2000 mg/kg/day, gestational day 7 to 19; cited from earlier work
[2] = tested on: simian/human immunodeficiency virus (SHIV); settings: long-acting CAB; cited from earlier work
pregnant rats [3] = settings: gestational day 0 to 17, cited from earlier work
pregnant rats [4] = settings: cited from earlier work
[5] = Amniotic fluid drug concentration in mouse pregnancy model (HPLC-MSMS); type: in vivo, C57BL/6J mice; settings: pregnant mice; for Kp at 1 h / concentration at 1 h: female, C57BL/6J, mouse, oral; for Kp at 1 h: amniotic fluid / maternal plasma; for concentration at 1 h: amniotic fluid
Description: All animal experiments were approved by the University Health Network Animal Use Committee (protocol #2575) and performed according to the policies and guidelines of the Canadian Council on Animal Care. C57BL/6J mice bred in-house (original breeders from Jackson Laboratory RRID:IMSR JAX:000664) were maintained under a 12-h light/dark cycle, with ad libitum access to food and water. Animals were acclimated to their surroundings for 1 week prior to experiment initiation. Males were isolated for 7 days prior to mating. Female mice (7–12 weeks of age) were mated with males at a ratio of 2:1. Presence of vaginal plug was denoted as gestational day 0.5 (GD0.5). Pregnancy was confirmed by weight gain of >1.5 g on GD9.5 and >3 g on GD13.5. […] The equivalent mouse mg/kg dose was calculated based on the human dose divided by an assumed average human weight of 60 kg. […] On GD15.5, mice underwent saphenous bleed 24 h after the GD14.5 dose administration (trough). Immediately after the saphenous bleed, mice were dosed with the appropriate drug regimen and sacrificed 1 h post-treatment (peak), at which time blood was collected by cardiac puncture and amniotic fluid was collected by dissecting the uterus, puncturing the amniotic sac, and draining the amniotic fluid into a sterile dish. Amniotic fluid was pooled for the entire litter. Samples from 2 dams per arm were analyzed for drug levels.
Briefly, 50 μL of plasma or amniotic fluid was spiked with internal standard (ritonavir-d6) followed by protein precipitation with acetonitrile and filtration. Filtrates were diluted 1:9 with ammonium acetate buffer (10 mM) and analyzed by the HPLC-MSMS system, consisting of a Shimadzu Nexera XR high-performance liquid chromatograph (Shimadzu, Columbia, MD, USA) coupled with a SCIEX API 4500 QqQ mass spectrometer (SCIEX, Concord, ON, Canada). Chromatographic separation by Mobile Phase A (10% methanol, 5% 50 mM ammonium acetate, 85% 0.25% acetic acid pH 3.6 ± 0.2) and Mobile Phase B (90% methanol, 5% 50 mM ammonium acetate, 5% 0.25% acetic acid pH 6.6 ± 0.2) was performed under linear gradient conditions (flow rate 0.7 mL/min) on a reverse-phase Zorbax XDB-C18 column (Agilent Technologies, Santa Clara, CA, USA) maintained at 40 °C. […] HPLC-MSMS data were acquired using Analyst (v 1.6.3, SCIEX, Concord, ON, Canada) and analyzed with MultiQuant software (v 3.0.3, SCIEX, Concord, ON, Canada). […] Positive controls spiked in-house and prepared by an external laboratory during a sample exchange program were included in all runs.

[6] = of 13 pregnant women living with HIV (4 oral CAB, 9 LA CAB)
[7] = CAB 5 mg/kg (10×) oral gavage once daily GD11.5-GD15.5 with TDF 50 mg/kg + FTC 33.3 mg/kg, mean (SD), n=2

C[C@H]1CO[C@@H]2Cn3cc(C(=O)NCc4ccc(F)cc4F)c(=O)c(O)c3C(=O)N12 [CAB, cabotegravir]
Birth defects ([1]; 13 pregnant women living with HIV (4 oral CAB, 9 LA CAB)): No cases of birth defects were reported
Women with live births [1, 6]: Four
Women with miscarriage within the first nine weeks of gestation [1, 6]: four
Fetal toxicities (pregnant rabbits): no drug-related fetal toxicities
Efficacy against intrarectal SHIV [2]: protective efficacy
Efficacy against repeated high-dose intravaginal SHIV [2]: protective efficacy
Fetal viability and fetal malformations (pregnant rats [3]; CAB orally 0, 0.5, 5, or 1000 mg/kg/day): no effects on fetal viability and no drug-related fetal malformations
Fetal body weight (pregnant rats [3]; CAB orally 1000 mg/kg/day): minor decrease in fetal body weight
Reproductive toxicity findings (pregnant rats [4]; CAB orally 1000 mg/kg/day, gestational day 6 to lactation day 21): delayed onset of parturition, increased number of stillbirths, and increased number of neonatal deaths at lactation day 4
CAB exposure relative to the recommended human dose (pregnant rats [4]; rats, 1000 mg/kg/day): 28 times
Kp at 1 h ([5]; 1× to 10× CAB, 1 h after dosing, read-out: Ratio of drug in the amniotic fluid to that in maternal plasma): 0.034 to 0.055
Kp at 1 h ([5]; CAB 0.5 mg/kg (1×) oral gavage once daily GD11.5-GD15.5 with TDF 50 mg/kg + FTC 33.3 mg/kg, mean (SD), n=2, read-out: Amniotic: Maternal Plasma Ratio 1 h): 0.05
Kp at 1 h ([5]; CAB 1.5 mg/kg (3×) oral gavage once daily GD11.5-GD15.5 with TDF 50 mg/kg + FTC 33.3 mg/kg, mean (SD), n=2, read-out: Amniotic: Maternal Plasma Ratio 1 h): 0.055
Kp at 1 h ([5]; CAB 5 mg/kg (10×) oral gavage once daily GD11.5-GD15.5 with TDF 50 mg/kg + FTC 33.3 mg/kg, mean (SD), n=2, read-out: Amniotic: Maternal Plasma Ratio 1 h): 0.034
concentration at 1 h ([5]; CAB 0.5 mg/kg (1×) oral gavage once daily GD11.5-GD15.5 with TDF 50 mg/kg + FTC 33.3 mg/kg, mean (SD), n=2): 44.9 ng/mL
concentration at 1 h ([5]; CAB 1.5 mg/kg (3×) oral gavage once daily GD11.5-GD15.5 with TDF 50 mg/kg + FTC 33.3 mg/kg, mean (SD), n=2): 59.9 ng/mL
concentration at 1 h [5, 7]: 112 ng/mL
Amniotic Fluid 1 h [5, 7]: 112.4 (33.6) ng/mL

Source: paper PMC9501129 (Pharmaceutics, 2022)
